Experimental data as given in patent US12180192B2, “Modulators of THR-β and methods of use thereof” (ALIGOS THERAPEUTICS, INC., priority 2019, dated 2024).

Assays:
[1] = biological target: T1, human thyroid receptor beta ligand-binding domain (LBD) (Homo sapiens, UniProt P10828); assay: TR-FRET thyroid receptor beta coactivator assay (THR biochemical assay, Assay 1); conditions: for EC50: THR-beta, TR-FRET coactivator assay, read-out: Activity category Assay 1 (EC50, THR-beta agonist); for Emax: Table 5, Assay 1, THRβ, read-out: Activity category Assay 1 THRβ (Emax)
T1 construct: purchased Invitrogen
T1 sequence (P10828 217-461 limits assumed): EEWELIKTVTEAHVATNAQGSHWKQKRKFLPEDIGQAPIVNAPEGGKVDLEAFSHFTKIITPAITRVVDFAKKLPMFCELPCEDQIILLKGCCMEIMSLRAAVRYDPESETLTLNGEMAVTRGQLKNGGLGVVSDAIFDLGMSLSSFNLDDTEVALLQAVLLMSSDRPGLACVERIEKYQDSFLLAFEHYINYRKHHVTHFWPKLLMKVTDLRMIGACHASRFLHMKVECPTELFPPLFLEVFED
How it was run: (§1)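 GST-tagged human TRβ or TRα LBD, 1 nM final (stated for β), with fluorescein-SRC2-2 coactivator peptide (200 nM) and Tb-anti-GST antibody (2 nM). Agonists serially diluted, 1% DMSO final. 1 h incubation at rt in the dark; TR-FRET read as rise in fluorescein and drop in terbium emission.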

[2] = biological target: T2, human thyroid receptor alpha ligand-binding domain (LBD) (Homo sapiens, UniProt P10827); assay: TR-FRET thyroid receptor alpha coactivator assay (THR biochemical assay, Assay 1); conditions: for EC50: Table 4, THR-alpha, read-out: Activity category Assay 1 (EC50, THR-alpha agonist activity); for Emax: Table 5, THRα, read-out: Activity category Assay 1 THRα (Emax)
T2 construct: purchased Invitrogen
How it was run: as §1

THR beta = biological target: T3, THR beta (Homo sapiens, UniProt P10828); assay: HEK293T THR beta/RXR luciferase reporter assay (Assay 2); assay type: cell-based; conditions: for Emax: HEK-293T, Table 5, Assay 2, THRβ, read-out: Activity category Assay 2 THRβ (Emax); for EC50: THR-beta, HEK293T reporter assay, read-out: Activity category Assay 2 (EC50, THR-beta agonist)
T3 construct: expressed in transfected cells; host or cells: HEK293T (ATCC CRL-3216)
T3 sequence (P10828 1-461): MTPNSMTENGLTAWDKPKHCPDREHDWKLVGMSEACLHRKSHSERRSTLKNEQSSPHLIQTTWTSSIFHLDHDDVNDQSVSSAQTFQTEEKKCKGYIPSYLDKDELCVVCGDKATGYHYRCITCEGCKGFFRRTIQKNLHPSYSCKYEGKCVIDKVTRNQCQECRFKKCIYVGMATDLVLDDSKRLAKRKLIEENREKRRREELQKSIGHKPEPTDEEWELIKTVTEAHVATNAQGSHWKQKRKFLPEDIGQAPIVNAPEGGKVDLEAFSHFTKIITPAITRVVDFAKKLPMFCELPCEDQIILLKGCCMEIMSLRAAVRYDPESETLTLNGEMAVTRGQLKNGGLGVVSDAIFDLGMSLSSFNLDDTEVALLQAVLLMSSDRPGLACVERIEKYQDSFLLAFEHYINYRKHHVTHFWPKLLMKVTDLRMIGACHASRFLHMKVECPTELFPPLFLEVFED
T3 sequence (P19793 1-462 partner): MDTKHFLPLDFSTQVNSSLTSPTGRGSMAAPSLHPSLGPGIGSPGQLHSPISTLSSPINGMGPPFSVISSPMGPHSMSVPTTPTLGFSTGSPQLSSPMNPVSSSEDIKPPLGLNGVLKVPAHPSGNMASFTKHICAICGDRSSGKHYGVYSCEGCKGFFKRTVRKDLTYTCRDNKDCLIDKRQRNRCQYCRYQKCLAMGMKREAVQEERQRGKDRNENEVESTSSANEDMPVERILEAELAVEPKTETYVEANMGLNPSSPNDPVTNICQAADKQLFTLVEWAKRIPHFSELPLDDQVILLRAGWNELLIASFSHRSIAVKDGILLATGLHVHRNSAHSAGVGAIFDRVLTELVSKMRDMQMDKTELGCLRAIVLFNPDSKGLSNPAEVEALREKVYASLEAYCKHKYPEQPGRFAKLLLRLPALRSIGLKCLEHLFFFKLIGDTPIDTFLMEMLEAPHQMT
Method: (§2) HEK293T Reporter THRalpha/Beta/RXR Reporter Assay (Assay 2)
(§3) The purpose of this assay is to evaluate the effect of compounds on the thyroid hormone nuclear receptor pathway in HEK293T cells. To this end, HEK293T cells are transiently transfected with a luciferase reporter under the control of the thyroid response element (TRE), an RXR expression plasmid and either a THR alpha or THR beta expression plasmid. Transfected cells are stimulated with test compounds for 18-24 hours before activation of the thyroid hormone pathway is measured via a luciferase read-out.
(§4) Procedure. […] Ten five-fold dilutions of test compounds are prepared in DMSO and 30 nL are dispensed to the cells. […] Approximately 18-24 h after compound addition, 384 well plates are allowed to adjust to rt, 30 μL One-Glo (Promega catalog #E6120) is added to each well and luminescence is measured on a Perkin Elmer Enspire plate reader. Percent agonism is calculated using the following equation: 100× (sample-negative control)/(positive control-negative control).

THR alpha = biological target: T4, THR alpha (Homo sapiens, UniProt P10827); assay: HEK293T THR alpha/RXR luciferase reporter assay (Assay 2); assay type: cell-based; conditions: Assay 2; for Emax: HEK-293T, Table 5, THRα, read-out: Activity category Assay 2 THRα (Emax); for EC50: Table 4, THR-alpha, read-out: Activity category Assay 2 (EC50, THR-alpha agonist activity)
T4 construct: expressed in transfected cells; host or cells: HEK293T (ATCC CRL-3216)
T4 sequence (P10827 1-410 isoform P10827-2): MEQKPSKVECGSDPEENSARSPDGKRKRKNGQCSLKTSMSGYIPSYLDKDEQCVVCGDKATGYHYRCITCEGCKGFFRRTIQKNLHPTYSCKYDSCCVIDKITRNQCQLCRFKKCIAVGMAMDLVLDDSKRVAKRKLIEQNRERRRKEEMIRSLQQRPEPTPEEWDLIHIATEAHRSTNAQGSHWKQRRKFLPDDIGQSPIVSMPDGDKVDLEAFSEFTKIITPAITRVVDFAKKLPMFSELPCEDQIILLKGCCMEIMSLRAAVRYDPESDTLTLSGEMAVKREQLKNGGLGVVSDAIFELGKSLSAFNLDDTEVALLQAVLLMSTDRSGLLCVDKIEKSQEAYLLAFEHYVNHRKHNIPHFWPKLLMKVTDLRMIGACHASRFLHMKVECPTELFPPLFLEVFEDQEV
T4 sequence (P19793 1-462 partner): T3 sequence (P19793 1-462 partner)
Method: as §2, §3, §4

Compound	EC50 [1] [nM]	Emax [1] [%]	EC50 [2] [nM]	Emax [2] [%]	Emax (THR beta) [%]	EC50 (THR beta) [nM]	Emax (THR alpha) [%]	EC50 (THR alpha) [nM]
CC(C)c1c[nH]c2nnc(Oc3c(Cl)cc(-n4nc(N)c(=O)[nH]c4=O)cc3Cl)cc12 [Compound 53, 6-amino-2-[3,5-dichloro-4-([5-isopropyl-7H-pyrrolo[2,3-c]pyridazin-3-yl]oxy)phenyl]-4H-1,2,4-triazine-3,5-dione]	< 50	50 to 75	250 to 1000	< 50	> 75	250 to 1000	> 75	1000 to 10000
Cc1cc(-n2ncc(=O)[nH]c2=O)cc(C)c1Cc1cnc2[nH]cc(C(C)C)c2n1 [Compound 56, 2-(4-((7-isopropyl-5H-pyrrolo[2,3-b]pyrazin-2-yl)methyl)-3,5-dimethylphenyl)-1,2,4-triazine-3,5(2H,4H)-dione]	< 50	< 50	250 to 1000	< 50	> 75	50 to 250	50 to 75	50 to 250
Cc1cc(-n2nc(C#N)c(=O)[nH]c2=O)cc(C)c1Cc1ccc2[nH]nc(C(C)C)c2c1 [Compound 57, 2-(4-((3-Isopropyl-1H-indazol-5-yl)methyl)-3,5-dimethylphenyl)-3,5-dioxo-2,3,4,5-tetrahydro-1,2,4-triazine-6-carbonitrile]	< 50	< 50	< 50	< 50	> 75	50 to 250	> 75	250 to 1000
Nc1nn(-c2cc(Cl)c(Oc3cc(C4CCCCC4)c(=O)[nH]n3)c(Cl)c2)c(=O)[nH]c1=O [Compound 58]	< 50	< 50	250 to 1000	< 50	> 75	50 to 250	50 to 75	250 to 1000
Nc1nn(-c2cc(Cl)c(Oc3cc(C4CCOCC4)c(=O)[nH]n3)c(Cl)c2)c(=O)[nH]c1=O [Compound 59, 6-amino-2-(3,5-dichloro-4-[[5-(oxan-4-yl)-6-oxo-1H-pyridazin-3-yl]oxy]phenyl)-4H-1,2,4-triazine-3,5-dione]	1000 to 25000	< 50	1000 to 25000	< 50	> 75	1000 to 10000	50 to 75	> 10000
CC(C)(O)c1cc(Oc2c(Cl)cc(-n3nc(N)c(=O)[nH]c3=O)cc2Cl)n[nH]c1=O [Compound 60, 6-amino-2-(3,5-dichloro-4-[[5-(2-hydroxypropan-2-yl)-6-oxo-1H-pyridazin-3-yl]oxy]phenyl)-4H-1,2,4-triazine-3,5-dione]	250 to 1000	< 50	1000 to 25000	< 50	> 75	1000 to 10000	> 75	1000 to 10000
C=C(C)c1cc(Oc2c(Cl)cc(-n3nc(N)c(=O)[nH]c3=O)cc2Cl)n[nH]c1=O [Compound 60-A, 6-amino-2-(3,5-dichloro-4-[[6-oxo-5-(prop-1-en-2-yl)-1H-pyridazin-3-yl]oxy]phenyl)-4H-1,2,4-triazine-3,5-dione]	< 50	< 50	50 to 250	< 50	50 to 75	250 to 1000	< 50	250 to 1000

Other lines, results leading:

EC50 [1] [nM]	Emax [1] [%]	EC50 [2] [nM]	Emax [2] [%]	Emax (THR beta) [%]	EC50 (THR beta) [nM]	Emax (THR alpha) [%]	EC50 (THR alpha) [nM]	Compound
< 50	< 50	< 50	< 50	> 75	50 to 250	> 75	250 to 1000	CC(c1c[nH]c2ccc(Oc3c(Cl)cc(-n4nc(C#N)c(=O)[nH]c4=O)cc3Cl)cc12)C(F)(F)F (centres unmarked) [Compound 45, 2-(3,5-dichloro-4-[[3-(1,1,1-trifluoropropan-2-yl)-1H-indol-5-yl]oxy]phenyl)-3,5-dioxo-4H-1,2,4-triazine-6-carbonitrile]
< 50	< 50	> 25000	< 50	50 to 75	1000 to 10000	< 50	> 10000	N#Cc1nn(-c2cc(Cl)c(Oc3ccc4[nH]cc(Cc5ccccc5)c4c3)c(Cl)c2)c(=O)[nH]c1=O [Compound 46, 2-[4-[(3-benzyl-1H-indol-5-yl)oxy]-3,5-dichlorophenyl]-3,5-dioxo-4H-1,2,4-triazine-6-carbonitrile]
< 50	< 50	< 50	< 50	> 75	1000 to 10000	> 75	1000 to 10000	N#Cc1nn(-c2cc(Cl)c(Oc3ccc4[nH]ccc4c3)c(Cl)c2)c(=O)[nH]c1=O [Compound 47, 2-[3,5-dichloro-4-(1H-indol-5-yloxy)phenyl]-3,5-dioxo-4H-1,2,4-triazine-6-carbonitrile]
< 50	50 to 75	< 50	50 to 75	> 75	50 to 250	> 75	250 to 1000	CCCc1c[nH]c2ccc(Oc3c(Cl)cc(-n4nc(C#N)c(=O)[nH]c4=O)cc3Cl)cc12 [Compound 48, 2-[3,5-dichloro-4-[(3-propyl-1H-indol-5-yl)oxy]phenyl]-3,5-dioxo-4H-1,2,4-triazine-6-carbonitrile]
< 50	< 50	< 50	< 50	> 75	250 to 1000	< 50	250 to 1000	CC(C)Cc1c[nH]c2ccc(Oc3c(Cl)cc(-n4nc(C#N)c(=O)[nH]c4=O)cc3Cl)cc12 [Compound 49, 2-(3,5-dichloro-4-[[3-(2-methylpropyl)-1H-indol-5-yl]oxy]phenyl)-3,5-dioxo-4H-1,2,4-triazine-6-carbonitrile]
< 50	50 to 75	< 50	50 to 75	> 75	50 to 250	> 75	250 to 1000	N#Cc1nn(-c2cc(Cl)c(Oc3ccc4[nH]cc(CC5CC5)c4c3)c(Cl)c2)c(=O)[nH]c1=O [Compound 50, 2-(3,5-dichloro-4-[[3-(cyclopropylmethyl)-1H-indol-5-yl]oxy]phenyl)-3,5-dioxo-4H-1,2,4-triazine-6-carbonitrile]
